Reference: patent US20060280725A1, “Compositions and methods of treating and diagnosing hepatoma” (priority 2003, published 2006)
Read-outs that look alike come from different tables or passages of the source.

System: human fetal liver fibroblasts (HFLF)
Experiment: Glutamine transport assay (inhibition and kinetic analysis)
Assay type: cell-based
Protocol: FIG. 5. Functional and molecular assessment of ATB^0 expression in human fetal liver fibroblasts (HFLF) and cirrhotic liver tissue. A) Amino acid inhibition analysis of Na^+-dependent glutamine uptake in human fetal liver fibroblasts. Fibroblasts were isolated and cultured as described in the Methods section, and amino acid inhibition analysis of 50 μM L-glutamine uptake was carried out as described in FIG. 1. *p<0.010 vs. control. The Eadie-Hofstee plot of the kinetic analysis is shown as an inset, with the dashed lines representing the resolved high and low affinity components of the composite data (solid line). The derived values of the kinetic constants for each component are given in the Results section. B) Northern blot analysis of ATB^0 expression in HFLF. Radiolabeled cDNA probes were generated with the Megaprime™ kit as described in the Methods section, and hybridized to 20 μg of total RNA from HFLF. Exposure time was 24 h. C) RT-PCR and restriction enzyme analysis of ATB^0 expression in HFLF, normal and cirrhotic liver. The analysis was carried out exactly as described in FIG. 3. Omission of RT is shown for the normal liver sample. D) Expression of ATB^0 in biopsies from a patient with liver cirrhosis and hepatocellular carcinoma (HCC). Northern blot analysis of ATB^0 & SN1 expression were performed on RNA extracted from the snap-frozen biopsies. RNA isolation and northern blot analysis was carried out as described in the Methods section, with full-length riboprobes used for detection of transporter mRNA. Exposure times for the blots are shown to illustrate relative expression levels for ATB^0 in each of the samples.
Glutamine Transport Assays. Measurement of initial-rate glutamine uptake was carried out via the cluster-tray method originally described by Gazzola (21) as reported previously (6, 9). Briefly, after trypsinization hepatoma cells were plated at a density of 1×10^5 cells/well in 24-well culture plates (Costar Corp., Cambridge, Mass.) and allowed to grow to >80% confluence, typically one to two days later. For initial-rate measurements, the radiotracer utilized was L-[G-^3H] glutamine (Amersham Corp., Arlington Heights, Ill.) at 4 μCi/ml, in the presence of unlabeled L-glutamine at 50 μM. For kinetic studies, the amount of unlabeled glutamine in the transport buffer varied from 10 μM to 10 mM. All transport measurements were carried out at 37° C. and were terminated after 30 s by three rapid washes with an ice-cold phosphate-buffered saline solution. Intracellular radiolabeled glutamine was extracted with 0.2 ml/well of 0.2% sodium dodecyl sulfate (SDS) and 0.2 N NaOH; after 1 h, 0.1 ml of the lysate was neutralized with 10 μl of 2 N HCl and subjected to scintillation spectrophotometry in a Packard TopCount™ (Packard Instruments, Meriden, Conn.). The remaining lysate was utilized for the determination of cellular protein by the bicinchoninic acid (BCA) method (Pierce Chemical Co., Rockford, Ill.). Rates of glutamine transport were calculated from the cpm per sample, the specific activity of the uptake mix (in cpm/nmol) and normalized to cellular protein content in a Microsoft Excel® spreadsheet program. Transport values obtained in the absence of extracellular Na^+ (diffusion and Na^+-independent uptake) were subtracted from those in the presence of Na^+ (total uptake) to yield Na^+-dependent rates which are reported in units of nmol•mg^−1 protein•30 s^−1. All transport values depicted are the average±standard deviation of four separate determinations. Kinetic analysis of Eadie-Hofstee linearized transport data (v vs. v/[L-GLN]) was performed by regression analysis (Cricket Graph®, Computer Associates, Islandia, N.Y.). Nonlinear regression analysis was performed with DataDesk (Data Description, Inc. Ithaca, N.Y.) and Excel for two component Michaelis-Menten kinetics: v=((Vmax1×[S])/(Km1+[S])+(Vmax2×[S])/(Km2+[S])). […]

Q: NC(=O)CC[C@H](N)C(=O)O [glutamine, L-glutamine] was tested. Which “Vmax, high affinity component” value did it give?
A: The value was 5.3 nmol•mg^−1 protein•30 s^−1.

Q: What about the “Vmax, low affinity component” value of the same compound?
A: Its value is 3.1 nmol•mg^−1 protein•30 s^−1.

Q: What about the Km (read-out: Km, high affinity component) of the same compound?
A: Its Km is 163 µM.

Q: What about the Km (read-out: Km, low affinity component) of the same compound?
A: Its Km is 1200 µM.
